The values below come from ChEMBL document CHEMBL3272085, “Quantitative structure-activity relationships. 2. A mixed approach, based on Hansch and Free-Wilson Analysis” (1976).

What all share (type): functional
In assay [1] the test system is Micrococcus luteus. In words: Antimicrobial activity against Sarcina lutea.
Assay [2] has as its system Enterococcus faecalis. Description: Antimicrobial activity against Streptococcus faecalis.
The subject of assay [3] is Bacillus cereus. In words: Antimicrobial activity against Bacillus cereus.
Assay [4] has as its system Staphylococcus aureus. Description: Antimicrobial activity against Staphylococcus aureus.
For assay [5], the system named is Bacillus subtilis. In words: Antimicrobial activity against Bacillus subtilis.
Assay [6] concerns Wickerhamomyces anomalus. Description: Antimicrobial activity against Hansenula anomala.

Consider `C=C(C)C(=O)Oc1cccc(Cl)c1`, for which the “log(1/C)” value is listed as 3.12 in assay [1]; 2.77 in assay [2]; 2.91 in assay [3]; 2.91 in assay [4]; 2.91 in assay [5]; 3.12 in assay [6].

Regarding `C=C(C)C(=O)Oc1ccc(Cl)cc1Cl`, the “log(1/C)” value in assay [1] amounted to 3.49; in assay [2] it was 3.49; in assay [3], 3.49; in assay [4], 3.49; in assay [5], 3.8; in assay [6], 3.49.

In the case of `C=C(C)C(=O)Oc1c(Cl)cc(Cl)cc1Cl`, the “log(1/C)” value in assay [1] amounted to 3.24; in assay [2], 3.76; in assay [3], 3.76; in assay [4], 3.76; in assay [5] it was 3.76; in assay [6], 3.46.

In the case of `C=C(C)C(=O)Oc1cc(Cl)c(Cl)cc1Cl`, the “log(1/C)” value is recorded as 3.54 in assay [1]; 3.84 in assay [2]; 3.84 in assay [3]; 3.84 in assay [4]; 3.84 in assay [5]; 3.54 in assay [6].

As to `C=C(C)C(=O)Oc1c(Cl)cc(Cl)c(Cl)c1Cl`, the “log(1/C)” value stood at 3.32 in assay [1]; 3.97 in assay [2]; 4.45 in assay [3]; 4.97 in assay [4]; 4.67 in assay [5]; 3.45 in assay [6].

With `C=C(C)C(=O)Oc1c(Cl)c(Cl)c(Cl)c(Cl)c1Cl`, the “log(1/C)” value in assay [1] is given as 3.71; in assay [2] it was 4.71; in assay [3], 5; in assay [4], 5.19; in assay [5] it was 5; in assay [6], 3.35.

For `C=C(C)C(=O)Oc1c(Br)c(Br)c(Br)c(Br)c1Br`, the “log(1/C)” value in assay [1] turned out to be 3.64; in assay [2], 3.64; in assay [3], 3.85; in assay [4], 5.32; in assay [5], 5.32; in assay [6] it was 3.35.
